Reference: paper PMC5218480 (PLoS ONE, 2017)

System: MV-4-11 cells
Experiment: Gene expression microarray analysis (Affymetrix PrimeView) and GSEA
Format: cell-based, human
Design: RFU PODN (11730768_x_at) / Fold change /veh PODN (11730768_x_at) / RFU LINC00158 (11744669_a_at) / Fold change /veh LINC00158 (11744669_a_at) / RFU DUSP10 (11751237_a_at) / Fold change /veh DUSP10 (11751237_a_at) / RFU ID3 (11757404_x_at) / Fold change /veh ID3 (11757404_x_at) / RFU PLEKHG5 (11737974_s_at) / Fold change /veh PLEKHG5 (11737974_s_at) / RFU LRRC4B (11730491_at) / Fold change /veh LRRC4B (11730491_at) / RFU GIMAP4 (11747438_a_at) / Fold change /veh GIMAP4 (11747438_a_at) / RFU KRT8 (11758183_x_at) / Fold change /veh KRT8 (11758183_x_at) / RFU CNN1 (11734310_a_at) / Fold change /veh CNN1 (11734310_a_at) / RFU VPS37D (11726825_at) / Fold change /veh VPS37D (11726825_at) / RFU C10orf10 (11716522_x_at) / Fold change /veh C10orf10 (11716522_x_at) / RFU KIR2DL2 /// KIR2DL4 /// KIR2DL5A /// KIR2DL5B /// KIR2DS1 /// KIR2DS2 /// KIR2DS3 /// KIR2DS4 /// KIR3DL3 /// KIR3DL3 /// KIR3DS1 (11738374_at) / Fold change /veh KIR2DL2 /// KIR2DL4 /// KIR2DL5A /// KIR2DL5B /// KIR2DS1 /// KIR2DS2 /// KIR2DS3 /// KIR2DS4 /// KIR3DL3 /// KIR3DL3 /// KIR3DS1 (11738374_at) / RFU C1QL1 (11718748_at) / Fold change /veh C1QL1 (11718748_at) / RFU TMPRSS4 (11747572_a_at) / Fold change /veh TMPRSS4 (11747572_a_at) / RFU HAMP (11756126_x_at) / Fold change /veh HAMP (11756126_x_at) / RFU RNFT2 (11725882_a_at) / Fold change /veh RNFT2 (11725882_a_at) / RFU NR4A2 (11747474_a_at) / Fold change /veh NR4A2 (11747474_a_at) / RFU ABCC12 (11746883_a_at) / Fold change /veh ABCC12 (11746883_a_at) / RFU TMEM136 (11760407_x_at) / Fold change /veh TMEM136 (11760407_x_at) / RFU CLDN22 /// WWC2 (11732394_at) / Fold change /veh CLDN22 /// WWC2 (11732394_at) / RFU HLA-DPB1 (11760878_x_at) / Fold change /veh HLA-DPB1 (11760878_x_at) / RFU SPINT1 (11716480_a_at) / Fold change /veh SPINT1 (11716480_a_at) / RFU GAP43 (11754022_s_at) / Fold change /veh GAP43 (11754022_s_at) / RFU A4GNT (11735810_at) / Fold change /veh A4GNT (11735810_at) / RFU PRB3 (11715151_x_at) / Fold change /veh PRB3 (11715151_x_at) / RFU TUBB4B (11761932_at) / Fold change /veh TUBB4B (11761932_at) / RFU CAPN14 (11732068_a_at) / Fold change /veh CAPN14 (11732068_a_at) / RFU TMCC2 (11721928_a_at) / Fold change /veh TMCC2 (11721928_a_at) / RFU IRGQ (11745062_a_at) / Fold change /veh IRGQ (11745062_a_at) / RFU FAM174B (11720279_a_at) / Fold change /veh FAM174B (11720279_a_at) / RFU TMPRSS4 (11748680_a_at) / Fold change /veh TMPRSS4 (11748680_a_at) / RFU FAM212B (11763350_a_at) / Fold change /veh FAM212B (11763350_a_at) / RFU PLEKHG5 (11743358_a_at) / Fold change /veh PLEKHG5 (11743358_a_at) / RFU ZSCAN30 (11745921_a_at) / Fold change /veh ZSCAN30 (11745921_a_at) / RFU CMKLR1 (11741424_a_at) / Fold change /veh CMKLR1 (11741424_a_at) / RFU LOC101060620 /// MAPK8IP1 (11723275_at) / Fold change /veh LOC101060620 /// MAPK8IP1 (11723275_at) / RFU SPTSSB (11747773_x_at) / Fold change /veh SPTSSB (11747773_x_at) / RFU PRSS12 (11739890_at) / Fold change /veh PRSS12 (11739890_at) / RFU BIN1 (11741810_x_at) / Fold change /veh BIN1 (11741810_x_at) / RFU WNT11 (11732464_a_at) / Fold change /veh WNT11 (11732464_a_at) / RFU C10orf10 (11716521_a_at) / Fold change /veh C10orf10 (11716521_a_at) / RFU C5orf56 (11738089_at) / Fold change /veh C5orf56 (11738089_at) / RFU CYB561 (11721691_x_at) / Fold change /veh CYB561 (11721691_x_at) / RFU ANKRD19P (11752326_a_at) / Fold change /veh ANKRD19P (11752326_a_at) / RFU OR2T12 /// OR2T33 /// OR2T8 (11738714_s_at) / Fold change /veh OR2T12 /// OR2T33 /// OR2T8 (11738714_s_at) / RFU VCAN (11748164_a_at) / Fold change /veh VCAN (11748164_a_at) / RFU JSRP1 (11732532_at) / Fold change /veh JSRP1 (11732532_at) / RFU KRTAP10-11 (11738290_x_at) / Fold change /veh KRTAP10-11 (11738290_x_at) / RFU MYO3A (11730013_a_at) / Fold change /veh MYO3A (11730013_a_at) / RFU EBF3 (11725865_a_at) / Fold change /veh EBF3 (11725865_a_at) / RFU CAMK2N1 (11719241_x_at) / Fold change /veh CAMK2N1 (11719241_x_at) / RFU C5orf56 (11738088_a_at) / Fold change /veh C5orf56 (11738088_a_at) / RFU OLFML3 (11715873_a_at) / Fold change /veh OLFML3 (11715873_a_at) / RFU LOC100653217 /// NTM (11731650_a_at) / Fold change /veh LOC100653217 /// NTM (11731650_a_at) / RFU MAPK11 (11762145_a_at) / Fold change /veh MAPK11 (11762145_a_at) / RFU FIZ1 (11724087_x_at) / Fold change /veh FIZ1 (11724087_x_at) / RFU OASL (11726364_x_at) / Fold change /veh OASL (11726364_x_at) / RFU SOX15 (11748057_x_at) / Fold change /veh SOX15 (11748057_x_at) / RFU CD79A (11719716_a_at) / Fold change /veh CD79A (11719716_a_at) / RFU HIST1H1D (11736915_at) / Fold change /veh HIST1H1D (11736915_at) / RFU CASKIN2 (11723855_a_at) / Fold change /veh CASKIN2 (11723855_a_at) / RFU LOC730098 (11760151_x_at) / Fold change /veh LOC730098 (11760151_x_at) / RFU OR4N2 (11742367_at) / Fold change /veh OR4N2 (11742367_at) / RFU PRRT2 (11749266_a_at) / Fold change /veh PRRT2 (11749266_a_at) / RFU SNX32 (11753110_a_at) / Fold change /veh SNX32 (11753110_a_at) / RFU CDHR5 (11726645_a_at) / Fold change /veh CDHR5 (11726645_a_at) / RFU RCAN1 (11760418_a_at) / Fold change /veh RCAN1 (11760418_a_at) / RFU FAM167A (11723789_a_at) / Fold change /veh FAM167A (11723789_a_at) / RFU FAM26E (11764081_at) / Fold change /veh FAM26E (11764081_at) / RFU ISYNA1 (11749810_s_at) / Fold change /veh ISYNA1 (11749810_s_at) / RFU ACY1 (11761880_at) / Fold change /veh ACY1 (11761880_at) / RFU 11764098_at / Fold change /veh 11764098_at / RFU SAMD14 (11745864_x_at) / Fold change /veh SAMD14 (11745864_x_at) / RFU NPB (11741838_a_at) / Fold change /veh NPB (11741838_a_at) / RFU TMPRSS6 (11731388_a_at) / Fold change /veh TMPRSS6 (11731388_a_at) / RFU KRTAP10-2 (11738614_at) / Fold change /veh KRTAP10-2 (11738614_at) / RFU ARHGAP8 /// PRR5-ARHGAP8 (11727945_x_at) / Fold change /veh ARHGAP8 /// PRR5-ARHGAP8 (11727945_x_at) / RFU KRTAP5-7 /// NADSYN1 (11734609_at) / Fold change /veh KRTAP5-7 /// NADSYN1 (11734609_at) / RFU RASL12 (11751679_a_at) / Fold change /veh RASL12 (11751679_a_at) / RFU CDKN2B (11736163_a_at) / Fold change /veh CDKN2B (11736163_a_at) / RFU PRF1 (11729649_at) / Fold change /veh PRF1 (11729649_at) / RFU, ZNF638 /// ZNF638-IT1 / Fold change vs veh, ZNF638 /// ZNF638-IT1 / RFU, PANK3 / Fold change vs veh, PANK3 / RFU, SH3YL1 / Fold change vs veh, SH3YL1 / RFU, ZEB2 / Fold change vs veh, ZEB2 / RFU, NRIP1 / Fold change vs veh, NRIP1 / RFU, PTTG1IP / Fold change vs veh, PTTG1IP / RFU, CAPN2 / Fold change vs veh, CAPN2 / RFU, MED14 / Fold change vs veh, MED14 / RFU, SNORA58 / Fold change vs veh, SNORA58 / RFU, C1orf63 / Fold change vs veh, C1orf63 / RFU, LRRFIP1 / Fold change vs veh, LRRFIP1 / RFU, NDUFAF7 / Fold change vs veh, NDUFAF7 / RFU, SLC12A2 / Fold change vs veh, SLC12A2 / RFU, IBTK / Fold change vs veh, IBTK / RFU, ESF1 / Fold change vs veh, ESF1 / Fold change vs veh, TMEM50B / RFU, TAOK1 / Fold change vs veh, TAOK1 / RFU, ACBD3 / Fold change vs veh, ACBD3 / RFU, TMA16 / Fold change vs veh, TMA16 / RFU, RWDD3 / Fold change vs veh, RWDD3 / RFU, BCAT1 / Fold change vs veh, BCAT1 / RFU, EDEM3 / Fold change vs veh, EDEM3 / RFU, TMEM33 / Fold change vs veh, TMEM33 / RFU, WDR75 / Fold change vs veh, WDR75 / RFU, AHCTF1 / Fold change vs veh, AHCTF1 / RFU, TFRC / Fold change vs veh, TFRC / RFU, ZDHHC17 / Fold change vs veh, ZDHHC17 / RFU, NOM1 / Fold change vs veh, NOM1 / RFU, ARL8B / Fold change vs veh, ARL8B / RFU, ZBTB11 / Fold change vs veh, ZBTB11 / RFU, TAMM41 / Fold change vs veh, TAMM41 / RFU, KIAA1704 /// LOC100996395 / Fold change vs veh, KIAA1704 /// LOC100996395 / RFU, ING1 / Fold change vs veh, ING1 / RFU, TRMT61B / Fold change vs veh, TRMT61B / RFU, FUBP3 / Fold change vs veh, FUBP3 / RFU, TP53 / Fold change vs veh, TP53 / RFU, TNKS2 / Fold change vs veh, TNKS2 / RFU, ZFP14 / Fold change vs veh, ZFP14 / RFU, ACTR2 / Fold change vs veh, ACTR2 / RFU, PPP3R1 / Fold change vs veh, PPP3R1 / RFU, PIK3R1 / Fold change vs veh, PIK3R1 / RFU, HNRNPA1 / Fold change vs veh, HNRNPA1 / RFU, RNF170 / Fold change vs veh, RNF170 / RFU, ZNF28 / Fold change vs veh, ZNF28 / RFU, RNGTT / Fold change vs veh, RNGTT / RFU, OGT / Fold change vs veh, OGT / RFU, BRD1 / Fold change vs veh, BRD1 / RFU, MARS / Fold change vs veh, MARS / RFU, ZNF655 / Fold change vs veh, ZNF655 / RFU, FAHD1 / Fold change vs veh, FAHD1 / RFU, BDP1 / Fold change vs veh, BDP1 / RFU, LRRCC1 / Fold change vs veh, LRRCC1 / RFU, ARID1A / Fold change vs veh, ARID1A / RFU, ZNF146 / Fold change vs veh, ZNF146 / RFU, ZNF330 / Fold change vs veh, ZNF330 / RFU, GPN3 / Fold change vs veh, GPN3 / RFU, C9orf123 / Fold change vs veh, C9orf123 / RFU, N4BP2L2 / Fold change vs veh, N4BP2L2 / RFU, ARFIP1 / Fold change vs veh, ARFIP1 / RFU, FAM179B / Fold change vs veh, FAM179B / RFU, BCL10 / Fold change vs veh, BCL10 / RFU, UHRF1BP1L / Fold change vs veh, UHRF1BP1L / RFU, BET1 / Fold change vs veh, BET1 / RFU, CNOT2 / Fold change vs veh, CNOT2 / RFU, ZNF268 / Fold change vs veh, ZNF268 / Fold change vs veh, ZNF507 / RFU, DGCR2 / Fold change vs veh, DGCR2 / RFU, WDSUB1 / Fold change vs veh, WDSUB1 / Fold change vs veh, HSP90B1 /// MIR3652 / RFU, ADSS / Fold change vs veh, ADSS / RFU, GK / Fold change vs veh, GK / RFU, ZNF148 / Fold change vs veh, ZNF148 / RFU, TAF9 / Fold change vs veh, TAF9 / RFU, SLC1A5 / Fold change vs veh, SLC1A5 / RFU, SLMO2 / Fold change vs veh, SLMO2 / RFU, ABCC4 / Fold change vs veh, ABCC4 / RFU, LOC101060439 /// RAP1B / Fold change vs veh, LOC101060439 /// RAP1B / RFU, RFX7 / Fold change vs veh, RFX7 / RFU, GTPBP10 / Fold change vs veh, GTPBP10 / RFU, CNEP1R1 / Fold change vs veh, CNEP1R1 / RFU, BIVM-ERCC5 /// ERCC5 / Fold change vs veh, BIVM-ERCC5 /// ERCC5 / RFU, ILF3 / Fold change vs veh, ILF3 / RFU 11762660_at / Fold change /veh 11762660_at / RFU VCAN (11757783_s_at) / Fold change /veh VCAN (11757783_s_at) / RFU DDX43 (11728927_at) / Fold change /veh DDX43 (11728927_at) / RFU KRT8 (11758188_x_at) / Fold change /veh KRT8 (11758188_x_at) / RFU NKD1 (11759106_at) / Fold change /veh NKD1 (11759106_at) / RFU SRD5A1 (11742802_a_at) / Fold change /veh SRD5A1 (11742802_a_at) / RFU TPSAB1 /// TPSB2 (11721975_s_at) / Fold change /veh TPSAB1 /// TPSB2 (11721975_s_at) / RFU GSTM3 (11746129_a_at) / Fold change /veh GSTM3 (11746129_a_at) / RFU IL23R (11737362_x_at) / Fold change /veh IL23R (11737362_x_at) / RFU TMEM51 (11727254_a_at) / Fold change /veh TMEM51 (11727254_a_at) / RFU PIWIL2 (11732686_x_at) / Fold change /veh PIWIL2 (11732686_x_at) / RFU ORM1 (11744905_x_at) / Fold change /veh ORM1 (11744905_x_at) / RFU CCDC152 (11743942_at) / Fold change /veh CCDC152 (11743942_at) / RFU ECM1 (11717891_a_at) / Fold change /veh ECM1 (11717891_a_at) / RFU IL23R (11748794_a_at) / Fold change /veh IL23R (11748794_a_at) / RFU TNFAIP8L3 (11732012_x_at) / Fold change /veh TNFAIP8L3 (11732012_x_at) / RFU MBOAT4 (11741988_at) / Fold change /veh MBOAT4 (11741988_at) / RFU 11764193_at / Fold change /veh 11764193_at / RFU TMEM53 (11763286_at) / Fold change /veh TMEM53 (11763286_at) / RFU MAGEB2 (11727129_at) / Fold change /veh MAGEB2 (11727129_at) / RFU TMEM200A (11744735_a_at) / Fold change /veh TMEM200A (11744735_a_at) / RFU CCDC152 (11751479_a_at) / Fold change /veh CCDC152 (11751479_a_at) / RFU FAM211A (11726209_a_at) / Fold change /veh FAM211A (11726209_a_at) / RFU RGS16 (11746705_a_at) / Fold change /veh RGS16 (11746705_a_at) / RFU VCAN (11755009_s_at) / Fold change /veh VCAN (11755009_s_at) / RFU RHOB (11743442_s_at) / Fold change /veh RHOB (11743442_s_at) / RFU RGS16 (11720943_a_at) / Fold change /veh RGS16 (11720943_a_at) / RFU RGS16 (11720944_at) / Fold change /veh RGS16 (11720944_at) / RFU, VPS4B / Fold change vs veh, VPS4B / RFU, CREB1 / Fold change vs veh, CREB1 / RFU, DNAJC13 / Fold change vs veh, DNAJC13 / RFU, GNAQ / Fold change vs veh, GNAQ / RFU, CDK5R1 / Fold change vs veh, CDK5R1 / RFU, ZRANB3 / Fold change vs veh, ZRANB3 / RFU, CUL4A / Fold change vs veh, CUL4A / RFU, CCNY / Fold change vs veh, CCNY / RFU, UFL1 / Fold change vs veh, UFL1 / RFU, COG3 / Fold change vs veh, COG3 / RFU, DIAPH2 / Fold change vs veh, DIAPH2 / RFU, SKA2 / Fold change vs veh, SKA2 / RFU, AFF3 / Fold change vs veh, AFF3 / RFU, LMF1 / Fold change vs veh, LMF1 / RFU, IPO11 / Fold change vs veh, IPO11 / RFU, DFFB / Fold change vs veh, DFFB / RFU, FOXP1 / Fold change vs veh, FOXP1 / RFU, CARD8 / Fold change vs veh, CARD8 / RFU, STRN3 / Fold change vs veh, STRN3 / RFU, ADK / Fold change vs veh, ADK / RFU, RASSF2 / Fold change vs veh, RASSF2 / RFU, WIPF1 / Fold change vs veh, WIPF1 / RFU, LARP1B / Fold change vs veh, LARP1B / RFU, RASA1 / Fold change vs veh, RASA1 / RFU, RB1 / Fold change vs veh, RB1 / RFU, PPFIA1 / Fold change vs veh, PPFIA1 / RFU, MAT2A / Fold change vs veh, MAT2A / RFU, CCT5 / Fold change vs veh, CCT5 / RFU, WDR92 / Fold change vs veh, WDR92 / RFU, CUX1 / Fold change vs veh, CUX1 / RFU, TTC7A / Fold change vs veh, TTC7A / RFU, TMEM135 / Fold change vs veh, TMEM135 / RFU, DEPTOR / Fold change vs veh, DEPTOR / RFU, CPM / Fold change vs veh, CPM / RFU, DNAJB6 / Fold change vs veh, DNAJB6 / RFU, CACNA2D3 / Fold change vs veh, CACNA2D3 / RFU, DTX4 / Fold change vs veh, DTX4 / RFU, TFCP2 / Fold change vs veh, TFCP2 / RFU, GMCL1 /// GMCL1P1 / Fold change vs veh, GMCL1 /// GMCL1P1 / RFU, AEBP2 / Fold change vs veh, AEBP2 / RFU, SNHG1 /// SNORD22 /// SNORD25 /// SNORD26 /// SNORD27 /// SNORD28 /// SNORD29 /// SNORD31 / Fold change vs veh, SNHG1 /// SNORD22 /// SNORD25 /// SNORD26 /// SNORD27 /// SNORD28 /// SNORD29 /// SNORD31 / Fold change (Aza/veh), C12orf56 (ProbeSet 11735607_a_at) / Fold change (ACY-1035/veh), C12orf56 (ProbeSet 11735607_a_at) / Fold change (Aza/veh), FGFR1OP (ProbeSet 11751329_s_at) / Fold change (ACY-1035/veh), FGFR1OP (ProbeSet 11751329_s_at) / Fold change (Aza/veh), VPS36 (ProbeSet 11739960_a_at) / Fold change (ACY-1035/veh), VPS36 (ProbeSet 11739960_a_at) / RFU SYPL1 (11715823_x_at) / Fold change /veh SYPL1 (11715823_x_at) / RFU IGFBP7 (11715501_s_at) / Fold change /veh IGFBP7 (11715501_s_at) / RFU REEP3 (11722064_at) / Fold change /veh REEP3 (11722064_at) / RFU IGLL1 (11728026_x_at) / Fold change /veh IGLL1 (11728026_x_at): dose or concentration left out as unconfirmed
Conditions: MV-4-11 cells, 48 hours

## Nc1ncn([C@@H]2O[C@H](CO)[C@@H](O)[C@H]2O)c(=O)n1 [azacitidine]
  RFU A4GNT (11735810_at): 14.85 RFU
